According to patent publication US20170158735A1, “METHOD FOR PRODUCING A RECOMBINANT PEPTIDE AND RESULTANT PEPTIDE” ("IVIX" Ltd., priority 2012, published 2017):
Ends that are not written are not given here.

Tested on: sexual behavior of female rats
Assay: Lordosis test: sexual behavior of ovariectomized hormonally stimulated female rats with a sexually active male
Type: in vivo, rat
Details: for Percentage of lordoses / Number of acts of proceptive behavior: ovariectomized hormonally stimulated female rats, progesterone 0.5 mg/rat, test product 100 μg/rat; for Percentage of lordoses: negative control 0.73 ± 0.12; for Number of acts of proceptive behavior: negative control 14 ± 4; for Effect on sexual motivation / reproductive- and sexual-function stimulating activity (in words): lordosis model, female rats, 100 μg/rat
Description: Sexual behavior was recorded in ovariectomized hormonally stimulated females in direct contact with the sexually active male, or when such a contact was impossible. […]
Sexual behavior was recorded in ovariectomized hormonally stimulated females in direct contact with the sexually active male, or when such a contact was impossible.

| Substance | Percentage of lordoses (Table 4 / Example 8) | Number of acts of proceptive behavior (Table 4 / Example 8) [acts] | Percentage of lordoses (Table 5 / Example 9) | Effect on sexual motivation / reproductive- and sexual-function stimulating activity (in words) |
| --- | --- | --- | --- | --- |
| Arg-Pro-Gly-Pro (RPGP) | 0.69 ± 0.14 | 15 ± 4 | – | – |
| Pro-Arg-Pro-Gly-Pro (PRPGP) | 0.73 ± 0.14 | 14 ± 6 | – | – |
| Pro-Gly-Pro (PGP) | 0.74 ± 0.09 | 13 ± 5 | – | – |
| TKPRPF | – | – | 0.94 ± 0.14 | intensification of sexual motivation |
| Thr-Lys-Pro (TKP) | 0.97±0.12 | 29±6 | 0.96 ± 0.12 | intensification of sexual motivation |
| Thr-Lys-Pro-Arg (TKPR) | – | – | – | lack of sexual motivation effect |
| Thr-Lys-Pro-Arg-Pro (TKPRP) | – | – | 0.99 ± 0.09 | intensification of sexual motivation |
| Thr-Lys-Pro-Phe (TKPF) | – | – | – | lack of sexual motivation effect |
